The numbers were not newly measured in US20150275270A1, “COMPOSITIONS AND METHODS FOR THE ANALYSIS OF DEGRADED NUCLEIC ACIDS” (ALTHEADX, INC., priority 2005, published 2015), which cites them from elsewhere.

For this data set the following is noted: clinical studies / post-marketing reports.
Take `Cc1c(C)c2c(c(C)c1O)CCC(C)(COc1ccc(CC3SC(=O)NC3=O)cc1)O2` (stereo not drawn) [Troglitazone, troglitazone]: the “drug-induced hepatotoxicity (clinical reports)” value (shortened to “drug-induced hepatotoxicity”) was “severe idiosyncratic hepatocellular injury”.

Take `CCc1ccc(CCOc2ccc(CC3SC(=O)NC3=O)cc2)nc1` (stereo not drawn) [pioglitazone]: the “drug-induced hepatotoxicity” value is reported as “no evidence of drug-induced hepatotoxicity”.

On to `CN(CCOc1ccc(CC2SC(=O)NC2=O)cc1)c1ccccn1` (stereo not drawn) [rosiglitazone], for which the “drug-induced hepatotoxicity” value was “no evidence of drug-induced hepatotoxicity”.
